Bounds are passed on as bounds.

The values below come from BindingDB's records for patent US11548890 (Nimbus Saturn, 2023).

The target in the experiment is Mitogen-activated protein kinase kinase kinase kinase 1 (Homo sapiens, UniProt Q92918). Description: HPK1 Biochemical Enzyme Assay. How it is done: HPK1 biochemical enzyme assay: HPK1 enzyme inhibition was measured using a microfluidic mobility shift assay. […] Test compounds were titrated in ten point curves (top final assay concentration 3 μM), and preincubated with enzyme/substrate mix for 30 min prior to initiation of the reaction by addition of ATP (1 mM final concentration) and substrate (1 μM final concentration; Carna Biosciences) diluted in assay buffer supplemented by MgCl2 (final assay concentration of 5 mM). Following 60 min incubation at RT, the reaction was terminated by addition of 60 μl/well termination buffer (Carna Biosciences) and signal determination using a Caliper EZ Reader (Perkin Elmer, UK).
Sequence of Mitogen-activated protein kinase kinase kinase kinase 1 (Q92918 whole entry): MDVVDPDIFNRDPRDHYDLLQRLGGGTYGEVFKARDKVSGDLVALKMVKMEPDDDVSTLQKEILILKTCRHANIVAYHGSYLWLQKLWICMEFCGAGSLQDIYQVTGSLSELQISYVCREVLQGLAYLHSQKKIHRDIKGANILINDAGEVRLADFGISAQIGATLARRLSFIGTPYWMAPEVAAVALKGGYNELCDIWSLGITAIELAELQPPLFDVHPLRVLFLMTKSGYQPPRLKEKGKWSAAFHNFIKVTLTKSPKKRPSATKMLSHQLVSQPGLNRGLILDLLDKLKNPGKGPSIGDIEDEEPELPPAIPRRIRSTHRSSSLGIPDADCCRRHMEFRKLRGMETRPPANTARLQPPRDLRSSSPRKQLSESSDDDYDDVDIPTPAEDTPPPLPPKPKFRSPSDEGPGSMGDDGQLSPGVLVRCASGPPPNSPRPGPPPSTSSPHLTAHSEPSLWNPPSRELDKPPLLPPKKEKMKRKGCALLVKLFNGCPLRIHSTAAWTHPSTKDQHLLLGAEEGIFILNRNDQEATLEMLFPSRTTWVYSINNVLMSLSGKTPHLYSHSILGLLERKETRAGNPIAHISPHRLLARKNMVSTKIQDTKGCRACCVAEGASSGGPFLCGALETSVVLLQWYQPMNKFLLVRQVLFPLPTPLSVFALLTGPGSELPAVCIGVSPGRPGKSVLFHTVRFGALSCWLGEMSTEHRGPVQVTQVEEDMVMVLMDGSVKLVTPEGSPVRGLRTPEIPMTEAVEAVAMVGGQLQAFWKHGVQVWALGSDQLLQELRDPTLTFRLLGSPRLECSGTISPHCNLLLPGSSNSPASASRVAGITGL
As for `CN(C)Cc1nc(Nc2ccc(-c3cnc4ccccn34)c3c2C(=O)NC3)ccc1[C@@H]1CCOC1` [US11548890, Compound I-714], the half-maximal inhibitory concentration (IC50) (usually the concentration that gives 50% inhibition) is less than 0.1 µM. The same measure for `CC(C)(O)[C@H]1CN(c2ccc(Nc3cnc(-c4cnc5cnccn45)c4c3C(=O)NC4)nc2)CCO1` [US11548890, Compound I-486]: less than 0.1 µM; for `COC1CCN(c2ccc(Nc3ccc(-c4cnc5c(F)cccn45)c4c3C(=O)NC4)nc2)CC1` [US11548890, Compound I-455]: “in the range around 0.55 µM”; for `CC1=CC2N=CC(c3ccc(Nc4ccc(N5CCC(O)CC5)cn4)c4c3CNC4=O)=C2C=C1` (centres undefined) [US11548890, Compound I-137]: less than 0.1 µM.
